Results published in publication PMC10537604, “Development and Assessment of 1,5–Diarylpyrazole/Oxime Hybrids Targeting EGFR and JNK–2 as Antiproliferative Agents: A Comprehensive Study through Synthesis, Molecular Docking, and Evaluation” (Molecules, 2023).

Columns and labels:
[1] = Nitric oxide release, Griess colorimetric method; type: physicochemical; details: phosphate buffer pH 7.4, N-acetylcysteine
Protocol: For the indirect determination of NO, the Griess colorimetric approach was utilized, which includes spectrophotometry measurements of the stable decomposition products NO2^− and NO3^−. This method requires that NO3^− is first reduced to NO2^− and then NO2^− is determined by the Griess reaction that includes two steps, the first step is a diazotization reaction in which the NO-derived nitrogen agent, dinitrogen trioxide (N2O3), which is produced by the spontaneous oxidation of NO with sulfanilamide to form the diazonium ion, is used. […] In order to evaluate thiol-induced NO generation from the appropriate compounds, including NO-donating oximes 8a–b, 8d–i, and 10a–c, they were incubated in aqueous phosphate buffer of pH 7.4 in the presence of excess N-acetylcysteine, which serves as a source of thiols that are essential for the release of NO from oximes. The signal intensity of the dye is proportional to the amount of NO released. To quantify the amount of NO released, a standard curve was made by measuring the change in absorbance of various concentrations of standard sodium nitrite solutions treated by the same way. […] At the first hour, the amount of nitric oxide released increased in compounds 8i, 8b, and 8h, while the maximum release of nitric oxide occurring in compounds 8b and 8h was at 2 h. Then, the amount of nitic oxide released declined, which may explain the biological importance of oxime moiety as a source of nitric oxide release in comparison with ketone intermediates 7a–j and 9a–c, as shown in the anticancer activity of oxime derivatives.
The nitrite calibration curve in addition to the absorbance of the tested compounds were measured on Shimadzu UV-160, UV-Visible spectrophotometer (Shimadzu, Tokyo, Japan). The tested compounds were prepared as solutions in DMF and diluted with the buffer system until a concentration of 100 mM. N-Acetyl cysteine solution was prepared in a concentration of 500 mM in methanol. Griess reagent consists of 0.1% w/v NED solution in water and sulfanilamide solution (1% w/v of sulfanilamide in 5% w/v phosphoric acid). Nitrite standard solution (0.1 M sodium nitrite in water) stock solution was prepared, from which a dilute solution of 100 μM nitrite solution was prepared by dilution 1 mL of the stock solution to 1000 mL with phosphate buffer of pH 7.4. From this solution, 4 serials 2-fold dilutions were performed to generate different concentrations of the nitrite solution (100.00, 50.00, 25.00, and 12.50 μM) and these concentrations were used for nitrite calibration curve.
Sulfanilamide and NEDD solutions were kept at 25 °C; […] of sulfanilamide solution was added to each dilution of the prepared standard nitrite solution. The mixture was left at 25 °C for 5–10 min protected from light. To this mixture, […] of the NEDD solution was added and the mixture was again left for 5–10 min at 25 °C protected from light. […] A plot of the average absorbance value for each concentration of the nitrite standard solution as a function of “Y” against nitrite concentration as a function of “X” was constructed to generate a standard nitrite calibration curve at pH 7.4.
The amount of NO released from the tested compounds 8a–b, 8d–I, and 10a–c was measured using the Griess colorimetric method either in phosphate buffer of pH 7.4 in the presence of N-acetyl cysteine, which serves as a source of thiols. The amount of NO released from the tested compounds was measured relative to NO released from standard sodium nitrite solution.
Different solutions of the tested compounds 8a–b, 8d–i, and 10a–c in DMF were diluted using phosphate buffer of pH 7.4 till a final concentration of 100 mM (test solutions). To […] of different test solutions, […] of N-acetyl cysteine solution was added and the obtained solution was kept in an incubator at 37 °C (treated solutions). […]

[2] = WST-8 cytotoxicity towards normal cell line PC12; type: cell-based, rat; details: rat, PC12 cells; WST-8 assay, six concentrations 1-100 μM; read-out: CC50 against PC12 cell line
Protocol: The evaluation of normal cell viability is fundamental in analyzing the efficacy of target compounds and is often used in conjunction with cytotoxicity tests to help understand how target compound toxicity affects normal cell health. […] A 100 μL aliquot of cells (10,000 cells/mL) was added to a 96 well plate and incubated for 24 h at 37 °C in a humidified incubator containing 5% CO2 in the air. […] Then, a 10 μL WST-8 solution (mixture of WST-8 and 1-methoxy PMS) was added to each well and the incubation continued for 3 h. The visible absorbance at 450 nm and 630 nm as the reference wavelength of each well was quantified using an MTP-310 absorbance microplate reader. Daunorubicin was used as a positive control. The results of cytotoxicity were recorded as growth inhibition percentages and as IC50 values.

[3] = tested on: Hela cells; test: Apoptosis assay, annexin V/PI flow cytometry; type: cell-based, human; details: concentration double the IC50, 24 h
Description: For further investigation of the anticancer activity of compounds 8g and 8i, studies of apoptotic changes after treatment of Hela cells with these inhibitors were examined using fluorescent microscope and flowcytometry. Moreover, to discriminate between apoptosis and necrosis after the treatment of Hela cell with two inhibitors 8g and 8i at different concentrations, a fluorescent microscope was used to distinguish between apoptosis and necrosis based on their characteristic difference in morphology using annexin V and PI [52]. […] This was exposed in the cell membrane of the Hela cells after treatment with two inhibitors due to plasma membrane sprouting and chromatin concentration. The prolonged incubation of Hela cells with two inhibitors directed cells to necrosis, which was marked in red because of the PI staining of necrotic cells as a result of losing their dye-excluding ability owing to a loss of plasma membrane integrity and the dissolution of nuclear chromatin [53] (Figure S1).
Then, 200 µL of medium was added to separate cells, cells were centrifuged for 5 min, and supernatant was decanted. Then, it was washed twice with 100 µL PBS and 200 µL of buffer, 5 µL of PI& Annexin, and 200 µL of PBS was added for the test compounds. For control, 400 µL of PBS was added. […]

[4] = tested on: human pancreatic cancer cell line SUIT-2; test: WST-8 antiproliferative assay, SUIT-2; type: cell-based; details: WST-8 assay, six concentrations 1-100 µM
[5] = tested on: human hepatocellular carcinoma cell line HepG2; test: WST-8 antiproliferative assay, HepG2; type: cell-based; details: WST-8 assay, six concentrations 1-100 µM
[6] = tested on: human colorectal adenocarcinoma cell line DLD-1; test: WST-8 antiproliferative assay, DLD-1; type: cell-based; details: WST-8 assay, six concentrations 1-100 µM
[7] = target: T1, JNK-2 (Homo sapiens, UniProt P45984); test: JNK-2 inhibitory assay (SimpleStep ELISA, pT183/Y185); type: biochemical; details: read-out: IC50 (µM) against JNK-2
T1 construct: HEK293 only for the control lysate
T1 sequence (P45984 whole entry): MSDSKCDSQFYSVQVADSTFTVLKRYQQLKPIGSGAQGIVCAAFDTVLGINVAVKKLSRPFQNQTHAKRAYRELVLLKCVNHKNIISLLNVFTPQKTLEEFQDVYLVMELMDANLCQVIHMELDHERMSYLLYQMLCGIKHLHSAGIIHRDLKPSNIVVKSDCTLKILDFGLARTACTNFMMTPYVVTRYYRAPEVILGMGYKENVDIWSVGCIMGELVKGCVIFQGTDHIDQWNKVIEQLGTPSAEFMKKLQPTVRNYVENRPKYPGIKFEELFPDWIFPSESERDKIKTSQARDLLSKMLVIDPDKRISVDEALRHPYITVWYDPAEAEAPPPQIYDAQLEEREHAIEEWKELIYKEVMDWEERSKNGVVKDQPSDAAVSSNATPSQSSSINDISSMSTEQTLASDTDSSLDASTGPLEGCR
Protocol: The SimpleStep ELISA employs an affinity tag-labelled capture antibody and a reporter attached detector antibody to immunocapture the sample analyte in solution. This complete complex (capture antibody/analyte/detector antibody) is then immobilized via immunoaffinity of an anti-tag antibody coating the well. To perform the assay, samples or controls are added to the wells, followed by the antibody cocktail. After incubation, the wells are washed to remove unbound material. TMB substrate is added and during incubation is catalyzed by HRP, generating blue coloration. This reaction is then stopped by the addition of stop solution, completing any color change from blue to yellow. The signal is generated proportionally to the amount of bound analyte and the intensity is measured at 450 nm. Optionally, instead of the endpoint reading, the development of TMB can be recorded kinetically at 600 nm. An antibody cocktail can be prepared by combining an appropriate volume of the capture and detector antibodies immediately prior to assay. To make 3 mL of the antibody cocktail, combine 1.5 mL of capture antibody with 1.5 mL of detector antibody. Mix thoroughly and gently. Control lysate can be prepared from HEK293 cells, cultured in 10% FBS containing medium, then treated with 1 μg/mL anisomycin. After preparing all the reagents, samples, and control as instructed and following the previously published procedures [74, 75], add 50 µL of sample or control to the well, add 50 µL of the antibody cocktail, then incubate at room temperature for 1 h on a plate shaker set to 400 rpm, aspirate and wash each well three times with 350 μL with wash buffer, add 100 μL TMB substrate to each well and incubate for 15 min, then add 100 μL stop solution and measure the absorbance at 450 nm.

With `COc1cc(/C(C)=N/O)ccc1OC(=O)c1cc(-c2ccc(C)cc2)n(-c2ccc(S(N)(=O)=O)cc2)n1` [Compound 8g, (E)–4–(1–(Hydroxyimino)ethyl)–2–methoxyphenyl 1–(4–sulfamoylphenyl)–5–p–tolyl–1H–pyrazole–3–carboxylate] as the compound, how does the “Amount of NO Released (mol/mol) 1 h” value ([1]; 1 h) read?
The value was 0.083 ± 0.035 mol/mol.

What about the “Amount of NO Released (mol/mol) 2 h” value ([1]; 2 h) of the same compound?
Its value is 0.154 ± 0.044 mol/mol.

And the “Amount of NO Released (mol/mol) 3 h” value ([1]; 3 h)?
The value was 0.141 ± 0.039 mol/mol.

And the “Amount of NO Released (mol/mol) 4 h” value ([1]; 4 h)?
Its value is 0.089 ± 0.019 mol/mol.

And the CC50 at 24 h [2]?
The CC50 at 24 h was 16.1 µM.

What about the “percentage of apoptotic Hela cells” value [3] of the same compound?
Its value is 34.7%.

What about the IC50 [4] of the same compound?
Its IC50 is 19 µM.

What about the IC50 [5] of the same compound?
The IC50 was 12.3 µM.

And the IC50 [6]?
The IC50 was 32.3 µM.

What about the IC50 [7] of the same compound?
The IC50 was > 200 µM.
